The subject of one data set is ISIF/HGF secretion. Put plainly: ISIF/HGF secretion by HepG2 cells after wounding (infection susceptibility assay). In kind it is cell-based. As to conditions: HepG2 cells treated, washed, incubated with P. berghei sporozoites to generate conditioned medium. As for the experimental part: HepG2 cells were treated with Brefeldin-A (BFA), an inhibitor of protein transport to the Golgi vesicles that blocks constitutive secretion in eukaryotic cells. BFA treated cells, and untreated control cells, were then washed and incubated with P. berghei sporozoites to generate conditioned medium. […] The effect of BFA was dose-dependent. Supernatants of mechanically wounded HepG2 cells were collected after various time periods of incubation. ISIF/HGF levels, as determined by the infection susceptibility assay (FIG. 2c) and western blot analysis, (FIG. 2d) increased with time. The ISIF activity was abolished by the addition of neutralizing anti-HGF antibodies (FIG. 2c).

Data set [1] concerns P. berghei sporozoites. Put plainly: Genistein effect on hepatic infection with Plasmodium berghei sporozoites in vitro (EEF count in HepG2 cells). As to conditions: Genistein at 25 μM, 24 h with P. berghei sporozoites. The format is cell-based. As for the experimental part: HepG2 cells were maintained in DMEM 10% FCS, 1 mM glutamine. P. berghei sporozoites were obtained from dissection of infected Anopheles stephensi mosquito salivary glands. P. berghei sporozoites ([…]) were added to monolayers of 2×10^5 HepG2 cells (in the presence or not of Genistein) for 24 h before fixation and staining with anti-EEF mAb (2E6), followed by anti-mouse IgG-FITC antibodies. Infection was quantified by counting the number of EEFs per coverslip.

For a further data set, the system named is HGF receptor. The experiment in a line: ISIF activity of medium conditioned by primary hepatocytes. In kind it is cell-based. On the procedure:
(§1) Supernatant were generated from cultures containing the mouse hepatoma cells Hepa1-6 and P. yoelii sporozoites (mH/Py conditioned media). To detect ISIF activity, fresh hepatoma cells were incubated with mH/Py conditioned media for different periods of time. Cells were then washed and incubated with P. yoelii sporozoites. Infection was examined 24 h later by staining the exo-erythrocytic forms of the parasite (EEFs). As controls, we used Hepa1-6 cells pre-incubated for identical periods of time with fresh medium before addition of P. yoelii sporozoites. Pre-treatment of hepatocytes with mH/Py conditioned medium increases the level of infection (FIG. 1a). […] Since sporozoites are obtained by dissection of infected mosquito salivary glands, we also tested conditioned media that were obtained from cultures containing hepatoma cells and material of salivary glands from uninfected mosquitoes. Medium conditioned in this way was ineffective (FIG. 1b).
Primary hepatocytes were obtained by liver perfusion. […] Cells that have been traversed by sporozoites can be detected using a cell-impermeant fluorescent tracer macromolecule that only penetrates into wounded cells. P. yoelii sporozoites were incubated with Hepa1-6 cells in the presence of fluorescent-labelled dextran before staining for HGF. […]

In a further data set the target is T1, MET (Homo sapiens, UniProt P08581).
T1 construct: host or cells: MLP-29 cells, GTL-16 gastric carcinoma cells and NIH3T3 fibroblasts are named in the same paragraph
T1 sequence (P08581 25-1390): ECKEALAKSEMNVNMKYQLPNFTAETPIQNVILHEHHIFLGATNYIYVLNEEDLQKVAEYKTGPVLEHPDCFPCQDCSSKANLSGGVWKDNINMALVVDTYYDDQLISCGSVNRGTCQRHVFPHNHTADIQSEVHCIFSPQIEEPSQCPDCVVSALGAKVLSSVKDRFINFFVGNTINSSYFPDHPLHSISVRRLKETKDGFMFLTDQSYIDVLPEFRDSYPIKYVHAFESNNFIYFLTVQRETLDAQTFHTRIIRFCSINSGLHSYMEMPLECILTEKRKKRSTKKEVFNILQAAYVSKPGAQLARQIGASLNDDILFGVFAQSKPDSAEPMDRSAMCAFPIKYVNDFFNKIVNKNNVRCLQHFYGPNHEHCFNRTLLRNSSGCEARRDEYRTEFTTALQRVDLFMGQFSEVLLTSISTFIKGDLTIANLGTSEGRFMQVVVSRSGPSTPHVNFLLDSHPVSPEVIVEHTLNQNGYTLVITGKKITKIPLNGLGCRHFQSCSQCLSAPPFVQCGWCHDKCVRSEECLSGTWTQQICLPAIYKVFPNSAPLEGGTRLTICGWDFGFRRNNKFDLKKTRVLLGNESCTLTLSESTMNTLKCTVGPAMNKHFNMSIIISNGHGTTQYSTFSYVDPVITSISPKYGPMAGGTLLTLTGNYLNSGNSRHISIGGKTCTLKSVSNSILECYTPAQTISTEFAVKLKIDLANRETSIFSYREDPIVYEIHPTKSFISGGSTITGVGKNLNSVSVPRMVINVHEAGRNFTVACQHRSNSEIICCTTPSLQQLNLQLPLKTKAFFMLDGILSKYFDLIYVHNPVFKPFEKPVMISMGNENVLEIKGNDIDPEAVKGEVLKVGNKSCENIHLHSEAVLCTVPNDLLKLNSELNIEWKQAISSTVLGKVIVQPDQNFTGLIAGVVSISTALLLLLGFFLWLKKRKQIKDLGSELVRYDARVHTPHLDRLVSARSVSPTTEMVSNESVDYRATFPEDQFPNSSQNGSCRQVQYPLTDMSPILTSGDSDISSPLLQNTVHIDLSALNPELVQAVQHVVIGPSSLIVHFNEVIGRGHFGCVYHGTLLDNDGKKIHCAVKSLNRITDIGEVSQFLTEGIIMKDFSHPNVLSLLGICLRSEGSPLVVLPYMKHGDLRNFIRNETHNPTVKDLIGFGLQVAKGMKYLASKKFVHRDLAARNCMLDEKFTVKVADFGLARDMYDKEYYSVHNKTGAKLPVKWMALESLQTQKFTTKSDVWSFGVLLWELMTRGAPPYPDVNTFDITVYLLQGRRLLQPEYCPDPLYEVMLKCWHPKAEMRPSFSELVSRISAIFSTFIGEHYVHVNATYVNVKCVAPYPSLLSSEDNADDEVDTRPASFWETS
The settings on record: cited from earlier work.

For data set [2] the following is noted: in vivo; cited from earlier work.
The next data set deals with Plasmodium berghei. The settings on record: cited from earlier work.
Data set [3] concerns P. berghei sporozoites. The experiment in a line: Infection susceptibility (ISIF) assay: HepG2 cells pre-incubated with growth factors or conditioned medium plus antibodies before P. berghei sporozoites. The format is cell-based, Plasmodium berghei. The settings on record: HepG2 cells pre-incubated before addition of P. berghei sporozoites. As for the experimental part: as §1
To test whether ISIF activity was mediated by known growth factor, two well-characterized growth factors known to be released after injury were tested: basic fibroblast growth factor (bFGF) and hepatocyte growth factor (HGF). HepG2 cells were pre-incubated with human HGF or bFGF before addition of P. berghei sporozoites. As positive and negative controls, cells were incubated with hH/Pb conditioned medium or fresh medium, respectively. […]

These results are taken from US7670631B2, “Method for the prevention of malaria infection of humans by hepatocyte growth factor antagonists” (ALFAMA—Investigação e Desenvolvimento de Produtos …, priority 2003, dated 2010).

As for `C[C@H]1CCC/C=C/[C@@H]2C[C@H](O)C[C@H]2[C@H](O)/C=C/C(=O)O1` [BFA, Brefeldin-A], in the data set with ISIF/HGF secretion, the ISIF/HGF secretion entry was “inhibits ISIF/HGF secretion”. With `O=c1c(-c2ccc(O)cc2)coc2cc(O)cc(O)c12` [Genistein, genistein], the “reduction in infection (number of EEFs per coverslip)” value in the data set with P. berghei sporozoites [1] is “approximately 75%”. For the compound `COC(=O)[C@@]1(O)C[C@H]2O[C@]1(C)n1c3ccccc3c3c4c(c5c6ccccc6n2c5c31)C(=O)NC4` [K252a], in the data set on HGF receptor, the ISIF activity entry was “abolished ISIF activity”. For the same compound, on MET, the “concentration inhibiting Met mediated signals” value was “nanomolar concentrations”. Take `OC(c1cc(C(F)(F)F)nc2c(C(F)(F)F)cccc12)C1CCCCN1` (stereo not shown) [Mefloquine, mefloquine]: in data set [2], the elimination half life result was “two to three”. Regarding `COc1cc(NC(C)CCCN)c2ncccc2c1` (stereo not shown) [Primaquine, primaquine], the half life entry in data set [2] is “very short”. `C[C@@H]1C[C@H]2O[C@@H]2/C=C\C=C\C(=O)Cc2c(Cl)c(O)cc(O)c2C(=O)O1` [radicicol]: the “activity against Plasmodium berghei in mice” value in the data set on Plasmodium berghei is “moderately active”.

Take `COc1cc(C)c2c(Oc3cccc(C(F)(F)F)c3)c(OC)cc(NC(C)CCCN)c2n1` (stereo not shown) [tafenoquine]: the terminal half life entry in data set [2] is reported as “about 14 days”.

On to “HGF: hepatocyte growth factor, ligand of the receptor protein tyrosine kinase Met”, for which the “effect on infection of pre-incubation of HepG2 cells with growth factor” value in the data set on P. berghei sporozoites [3] is “increased infection to a greater extent than the hH/Pb conditioned medium”.

In the case of bFGF: basic fibroblast growth factor, the “effect on infection of pre-incubation of HepG2 cells with growth factor” value in the data set with P. berghei sporozoites [3] is listed as “ineffective”.
